Test results published in patent US6635620B1, “Hydroxyproline derivatives” (Japan Bioproducts Ind. Co., Ltd., priority 1998, dated 2003).

Tested on: BHK-21 cells
Assay: BHK-21 cell proliferation (cell growth) activity
Type: cell-based, hamster
Conditions: 3 days culture, compared with medium control
Method: Cell growth activities of the samples were measured as BHK (baby hamster kidney) −21 cell proliferation activity, following the known method (Planta Med., 62,115-118,1996, and others). In detail, BHK-21 cells (1×10^4) were cultured in Eagle's minimum essential medium supplemented with 5% fetal bovine serum and 2 mM glutamine, for 3 days at 37° C. with different concentration (μg/ml) of test samples in 5% CO2/air at pH 7.2. The cells were treated with a mixture of trypsin and 0.02% EDTA solution to detach the cells from each well. The cells were harvested and the numbers of total viable cells were counted. The viability of the cells was determined by the method of dye-exclusion test using 0.4% trypan blue solution. The cell growth activity (%) was determined by comparing with the control cells (medium control).

SMILES: O=C1NC(CO)C(=O)N2C[C@H](O)CC12 (stereo partly shown) [Compound 2, 3′-Hydroxymethyl-4-hydroxypyrrolido [1,2-f] 2′, 5′-piperazinedione]
- cell growth activity: showed the cell growth activity
